From article PMC6270778, “Novel Cinnamic Acid Derivatives as Antioxidant and Anticancer Agents: Design, Synthesis and Modeling Studies” (Molecules, 2014)

What was measured:
[1] = ABTS+ decolorization assay; settings: 0.1 mM
Description: The ABTS^•+ is derived from the oxidation of ABTS by potassium persulfate. It is a decolorization assay. The addition of electron-donating antioxidants leads to ABTS^•+ reduction. The chemistry taking place involves the direct generation of the ABTS^•+ with no involvement of an intermediary radical.
In this assay, ethanol is used for the dilution of the ABTS^+• solution. ABTS is dissolved in water to a 7 mM and reacts with 2.45 mM […] to produce the ABTS radical cation (ABTS^+•) by allowing the mixture to stand in the dark at room temperature for 12–16 h before use. Ten μL of diluted ABTS^+• solution (734 nm) is added to 10 μL of antioxidant compounds or Trolox standards (final concentration 0–0.1 mM) in ethanol and the absorbance is measured at 30 °C exactly 1 min after the initial mixing (Table 3).

[2] = Interaction with the stable radical DPPH
Description: The novel acids were studied for the antioxidant activity by the use of the sTable 2,2-diphenyl-1-picrylhydrazyl radical (DPPH) at concentrations 0.05 and 0.1 mM after 20 and 60 min (Table 2). In the DPPH assay, the dominant chemical reaction involved is the reduction of the DPPH radical by single electron transfer SET from the antioxidant. Phenolic compounds eg. […] The compounds presented reducing abilities which ranged nearly 29% (4ii), small differences were found among the compounds with time and concentration. […] Due to steric reasons the interaction of DPPH with the tested compounds is low.
To a solution of DPPH in absolute ethanol the appropriate volume of the compounds (0.05 and 0.1 mM final concentrations) dissolved in DMSO was added. The absorbance was recorded at 517 nm after 20 and 60 min at room temperature (Table 3).

[3] = Superoxide radical scavenging activity (non-enzymatic, PMS/NADH, NBT method); settings: 0.1 mM; no = no action under the used experimental conditions
Description: The superoxide anion radical (O2^−·) is less toxic than the hydroxyl radical, but still being one of the most known toxic ROS. Two different experimental assays are followed for the determination of superoxide anion radical scavenging activity: (i) one involves an enzymatic production of superoxide anions and (ii) the other is supported by a non- enzymatic procedure. Herein the test is performed at 0.1 mM concentration, generating superoxide anion radicals by a non-enzymatically assay (Table 3). Compound 1i presented the highest activity, followed by compound 1ii (75% and 50%, respectively).
Superoxide radicals were produced non-enzymatically by mixing PMS, NADH and air–oxygen. The nitroblue tetrazolium method was used for the estimation of the produced radicals. The reaction mixture containing compounds (0.1 mM), 3 μM PMS, 78 μM NADH, and 25 μM NBT in 19 μM phosphate buffer pH 7.4 was incubated for 2 min at room temperature. The acrylic acids were preincubated for 2 min before adding NADH (Table 4) and the absorption was recorded at 560 nm.

[4] = Hydroxyl radicals scavenging activity (Fe3+/ascorbic acid system, competition with DMSO); settings: 0.1 mM; no = no action under the used experimental conditions
Description: Thus we evaluated our acids for their competition with DMSO for ˙OH radicals was measured, hydroxyl radicals were produced by the Fe^3+/ascorbic acid system and expressed as percent inhibition of formaldehyde formation at 0.1 mM concentration (Table 3).
The hydroxyl radicals were produced by the Fe ^3+/ascorbic acid system. EDTA (0.1 mM), Fe ^3+ (167 μM), DMSO (33 mM) in phosphate buffer (50 mM, pH 7.4), the tested compounds (0.1 mM) and ascorbic acid (10 mM) were mixed in test tubes. The solutions were incubated at 37 °C for 30 min. The reaction was stopped by CCl3COOH (17% w/v) (Table 4) and the % scavenging activity of the tested compounds for hydroxyl radicals was given.

[5] = Inhibition of linoleic acid peroxidation (AAPH); settings: 0.1 mM
From the text: For the in vitro study of the free radical production, azo compounds generating free radicals through spontaneous thermal decomposition are used. The water soluble 2,2'-azobis(2-amidinopropane) hydrochloride (AAPH) is recommended as appropriate for measuring radical-scavenging activity in vitro. The activity of the peroxyl radicals produced by the action of AAPH greatly resembles to cellular activities such as lipid peroxidation. The phenyl substituted acids presented remarkable activity at 0.1 mM concentration (84%–92%) compared to the non-substituted derivatives (20%–63%).
For initiating the free radical, 2,2'-azobis(2-amidinopropane) dihydrochloride (AAPH) is used. The final solution in the UV cuvette consisted of ten microliters of the 16 mM linoleate sodium dispersion 0.93 mL of 0.05 M phosphate buffer, pH 7.4, thermostatted at 37 °C. 50 μL of 40 mM AAPH solution was added as a free radical initiator at 37 °C under air and 10 μL of the tested compounds. The oxidation of linoleic acid sodium salt results a conjugated diene hydroperoxide. The reaction is monitored at 234 nm (Table 3).

## O=C1O[C@H]([C@@H](O)CO)C(O)=C1O [Ascorbic Acid, reference compound]
[1]
  ABTS+· (%) (±SD): 96 ± 0.9%

## CC(Cc1ccc(O)c(O)c1)C(C)Cc1ccc(O)c(O)c1 (stereo not drawn) [NDGA, nordihydroguaretic acid, reference compound]
[2]; 0.05 mM, 20 min
  RA % (±SD), DPPH: 85 ± 1.6%
[2]; 0.05 mM, 60 min
  RA % (±SD), DPPH: 83 ± 1.1%
[2]; 0.1 mM, 20 min
  RA % (±SD), DPPH: 81 ± 0.8%
[2]; 0.1 mM, 60 min
  RA % (±SD), DPPH: 83 ± 0.7%

## O=C(O)/C=C/c1ccc(O)c(O)c1 [Caffeic acid, caffeic acid, reference compound]
[3]
  O2−· (%) (±SD): 46 ± 0.5%

## Cc1c(C)c2c(c(C)c1O)CCC(C)(C(=O)O)O2 (stereo not drawn) [Trolox, reference compound]
[1]
  ABTS+· (%) (±SD): 88 ± 1.7%
[4]
  HO (%) (±SD): 73 ± 1.0%
[5]
  AAPH (%) (±SD), inhibition of linoleic acid peroxidation: 63 ± 1.3%
